Measured values published in PubChem BioAssay AID328 (DTP/NCI, 2004).
“And” between values parts separate entries of the source, which are not always exact repeats. Equal entries are not always repeated. Toxic doses and inconclusive results are not listed.

Tested on: BDF1 mice, P388 leukemia ip, median survival T/C
Test: NCI In Vivo Anticancer Drug Screen. Data for tumor model P388 Leukemia (intraperitoneal) in B6D2F1 (BDF1) mice
Settings: endpoint: median survival time, higher = longer survival
Method in brief: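 Transplantable tumour in mice; compound vs vehicle dosing; survival scored; ratio of treated to control reported.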

[1] = dose: 12.5 mg/kg/injection, schedule: Q01DX009 (ip), vehicle: Klucel (hydroxypropylcellulose) (HPC)
[2] = dose: 100.0 mg/kg/injection, schedule: Q04DX003 (ip), vehicle: Klucel (hydroxypropylcellulose) (HPC)
[3] = dose: 200.0 mg/kg/injection, schedule: Q04DX003 (ip), vehicle: Klucel (hydroxypropylcellulose) (HPC)
[4] = dose: 50.0 mg/kg/injection, schedule: Q01DX009 (ip), vehicle: saline with Tween-80
[5] = dose: 100.0 mg/kg/injection, schedule: Q01DX009 (ip), vehicle: saline with Tween-80
[6] = dose: 100.0 mg/kg/injection, schedule: Q01DX001 (ip), vehicle: saline with Tween-80
[7] = dose: 200.0 mg/kg/injection, schedule: Q01DX001 (ip), vehicle: saline with Tween-80
[8] = dose: 25.0 mg/kg/injection, schedule: Q01DX009 (ip), vehicle: Klucel (hydroxypropylcellulose) (HPC)
[9] = dose: 50.0 mg/kg/injection, schedule: Q01DX009 (ip), vehicle: Klucel (hydroxypropylcellulose) (HPC)
[10] = dose: 25.0 mg/kg/injection, schedule: Q01DX009 (ip), vehicle: saline with Tween-80
[11] = dose: 200.0 mg/kg/injection, schedule: Q01DX009 (ip), vehicle: saline with Tween-80
[12] = dose: 100.0 mg/kg/injection, schedule: Q01DX009 (ip), vehicle: Klucel (hydroxypropylcellulose) (HPC)
[13] = dose: 400.0 mg/kg/injection, schedule: Q01DX009 (ip), vehicle: saline with Tween-80
[14] = dose: 25.0 mg/kg/injection, schedule: Q01DX001 (ip), vehicle: saline with Tween-80
[15] = dose: 50.0 mg/kg/injection, schedule: Q01DX001 (ip), vehicle: saline with Tween-80

## N#CSc1ncnc2nc[nH]c12
dose: 3.0 mg/kg/injection, schedule: Q01DX009 (ip), vehicle: alkali diluted with saline
  T/C: 110 % of control
dose: 3.0 mg/kg/injection, schedule: Q04DX003 (ip), vehicle: alkali diluted with saline
  T/C: 100 % of control
dose: 4.0 mg/kg/injection, schedule: Q01DX009 (ip), vehicle: alkali diluted with saline
  T/C: 95 % of control
dose: 6.0 mg/kg/injection, schedule: Q01DX009 (ip), vehicle: alkali diluted with saline
  T/C: 116 % of control
dose: 6.0 mg/kg/injection, schedule: Q04DX003 (ip), vehicle: alkali diluted with saline
  T/C: 95 % of control
dose: 9.0 mg/kg/injection, schedule: Q01DX009 (ip), vehicle: alkali diluted with saline
  T/C: 95 % of control
dose: 12.0 mg/kg/injection, schedule: Q01DX009 (ip), vehicle: alkali diluted with saline
  T/C: 120 % of control
dose: 12.0 mg/kg/injection, schedule: Q04DX003 (ip), vehicle: alkali diluted with saline
  T/C: 100 % of control and 113 % of control

## C[CH2][Pb]([CH2]C)([CH2]C)[O]C(=O)c1ccc(N)cc1
dose: 0.75 mg/kg/injection, schedule: Q01DX009 (ip), vehicle: Klucel (hydroxypropylcellulose) (HPC)
  T/C: 100 % of control
dose: 1.5 mg/kg/injection, schedule: Q01DX009 (ip), vehicle: Klucel (hydroxypropylcellulose) (HPC)
  T/C: 110 % of control
dose: 1.56 mg/kg/injection, schedule: Q01DX009 (ip), vehicle: Klucel (hydroxypropylcellulose) (HPC)
  T/C: 111 % of control
dose: 3.0 mg/kg/injection, schedule: Q01DX009 (ip), vehicle: Klucel (hydroxypropylcellulose) (HPC)
  T/C: 110 % of control and 117 % of control
dose: 3.12 mg/kg/injection, schedule: Q01DX009 (ip), vehicle: Klucel (hydroxypropylcellulose) (HPC)
  T/C: 114 % of control and 119 % of control
dose: 6.0 mg/kg/injection, schedule: Q01DX009 (ip), vehicle: Klucel (hydroxypropylcellulose) (HPC)
  T/C: 119 % of control and 122 % of control
dose: 6.25 mg/kg/injection, schedule: Q01DX009 (ip), vehicle: Klucel (hydroxypropylcellulose) (HPC)
  T/C: 104 % of control
dose: 12.0 mg/kg/injection, schedule: Q01DX009 (ip), vehicle: Klucel (hydroxypropylcellulose) (HPC)
  T/C: 99 % of control
[1]
  T/C: 93 % of control and 106 % of control

## CN=C1N[N+]2=CCCCC2S1 (configuration not stated)
dose: 60.0 mg/kg/injection, schedule: Q01DX009 (ip), vehicle: saline
  T/C: 163 % of control
dose: 120.0 mg/kg/injection, schedule: Q01DX009 (ip), vehicle: saline
  T/C: 95 % of control

## Nc1nc(SCc2ccc([N+](=O)[O-])cc2)c2[nH]cnc2n1
dose: 100.0 mg/kg/injection, schedule: Q04DX003 (ip), vehicle: saline sonified
  T/C: 110 % of control
dose: 200.0 mg/kg/injection, schedule: Q04DX003 (ip), vehicle: saline sonified
  T/C: 110 % of control
dose: 400.0 mg/kg/injection, schedule: Q04DX003 (ip), vehicle: saline sonified
  T/C: 100 % of control

## CN(C)c1ccc(C(/C=N\O)(c2ccc(N(C)C)cc2)c2ccc(N(C)C)cc2)cc1
[2]
  T/C: 104 % of control
[3]
  T/C: 100 % of control
dose: 400.0 mg/kg/injection, schedule: Q04DX003 (ip), vehicle: Klucel (hydroxypropylcellulose) (HPC)
  T/C: 109 % of control

## O=S1(=O)CCCO1
[4]
  T/C: 95 % of control
[5]
  T/C: 113 % of control

## CS(=O)(=O)Nc1cc(Cl)c(NS(C)(=O)=O)c(Cl)c1Cl
[6]
  T/C: 100 % of control
[7]
  T/C: 103 % of control
dose: 400.0 mg/kg/injection, schedule: Q01DX001 (ip), vehicle: saline with Tween-80
  T/C: 100 % of control

## CCN1CC1 (tested in a mixture with another compound)
dose: 0.14 mg/kg/injection, schedule: Q01DX009 (ip), vehicle: saline
  T/C: 95 % of control
dose: 0.29 mg/kg/injection, schedule: Q01DX009 (ip), vehicle: saline
  T/C: 86 % of control
dose: 0.58 mg/kg/injection, schedule: Q01DX009 (ip), vehicle: saline
  T/C: 90 % of control
dose: 1.17 mg/kg/injection, schedule: Q01DX009 (ip), vehicle: saline
  T/C: 120 % of control
dose: 2.34 mg/kg/injection, schedule: Q01DX009 (ip), vehicle: saline
  T/C: 120 % of control

## CC(=O)OCc1c(COC(C)=O)c(-c2ccc(Cl)cc2)n2c1CCC2
[1]
  T/C: 119 % of control
[8]
  T/C: 123 % of control
[9]
  T/C: 98 % of control

## CCc1cccc2c(NCCCCCCNc3c4ccccc4nc4c(CC)cccc34)c3ccccc3nc12
dose: 0.31 mg/kg/injection, schedule: Q01DX009 (ip), vehicle: lactic acid
  T/C: 108 % of control
dose: 0.62 mg/kg/injection, schedule: Q01DX009 (ip), vehicle: lactic acid
  T/C: 103 % of control
dose: 5.0 mg/kg/injection, schedule: Q01DX009 (ip), vehicle: lactic acid
  T/C: 173 % of control

## N/N=C(\N)c1nn[nH]n1
[10]
  T/C: 96 % of control
[4]
  T/C: 96 % of control
[5]
  T/C: 110 % of control
[11]
  T/C: 86 % of control

## COc1ccccc1/C=N\NC(C)=O
[8]
  T/C: 96 % of control
dose: 25.0 mg/kg/injection, schedule: Q04DX003 (ip), vehicle: Klucel (hydroxypropylcellulose) (HPC)
  T/C: 86 % of control
[9]
  T/C: 107 % of control
[12]
  T/C: 92 % of control
[2]
  T/C: 86 % of control

## COc1ccc2nccc(C=O)c2c1
[5]
  T/C: 116 % of control
[11]
  T/C: 114 % of control
[13]
  T/C: 117 % of control

## N#CC1(c2ccc(Cl)cc2)CC1
[12]
  T/C: 95 % of control
[2]
  T/C: 92 % of control
dose: 200.0 mg/kg/injection, schedule: Q01DX009 (ip), vehicle: Klucel (hydroxypropylcellulose) (HPC)
  T/C: 100 % of control
[3]
  T/C: 100 % of control

## NC1CC2(CCC1=O)c1ccccc1-c1ccccc12 (configuration not stated)
[14]
  T/C: 96 % of control
[15]
  T/C: 94 % of control
[6]
  T/C: 97 % of control

## c1ccc(CCN2CCC3(CC2)COCc2ccccc23)cc1
[14]
  T/C: 104 % of control
[15]
  T/C: 90 % of control

## O=[N+]([O-])c1ccc(N2[C@@H]3C4CCC([C@@H]32)C42OCCO2)cc1
[15]
  T/C: 93 % of control
[6]
  T/C: 118 % of control
[7]
  T/C: 93 % of control

## C=C1C(=O)OC2CC(C)C3CCC(=O)C3(C)C(O)C12 (configuration not stated)
dose: 4.0 mg/kg/injection, schedule: Q01DX009 (ip), vehicle: Klucel (hydroxypropylcellulose) (HPC)
  T/C: 90 % of control
dose: 8.0 mg/kg/injection, schedule: Q01DX009 (ip), vehicle: Klucel (hydroxypropylcellulose) (HPC)
  T/C: 95 % of control
dose: 16.0 mg/kg/injection, schedule: Q01DX009 (ip), vehicle: Klucel (hydroxypropylcellulose) (HPC)
  T/C: 104 % of control
dose: 32.0 mg/kg/injection, schedule: Q01DX009 (ip), vehicle: Klucel (hydroxypropylcellulose) (HPC)
  T/C: 111 % of control

## CCOC(=O)c1nnc(C)[nH]c1=O
[4]
  T/C: 103 % of control
[5]
  T/C: 103 % of control
[11]
  T/C: 98 % of control

## CC1(C)CC(C(N)=O)C(C)(C)N1O (configuration not stated)
dose: 100.0 mg/kg/injection, schedule: Q01DX001 (ip), vehicle: saline
  T/C: 109 % of control
dose: 200.0 mg/kg/injection, schedule: Q01DX001 (ip), vehicle: saline
  T/C: 86 % of control
dose: 400.0 mg/kg/injection, schedule: Q01DX001 (ip), vehicle: saline
  T/C: 100 % of control

## OCC(O)C(O)C(O)C(O)C(O)c1nc2ccccc2[nH]1 (configuration not stated)
[5]
  T/C: 100 % of control
[11]
  T/C: 91 % of control
[13]
  T/C: 93 % of control

## CCCCOB(CCl)OCCCC
dose: 6.25 mg/kg/injection, schedule: Q01DX001 (ip), vehicle: saline
  T/C: 104 % of control
dose: 12.5 mg/kg/injection, schedule: Q01DX001 (ip), vehicle: saline
  T/C: 100 % of control
dose: 25.0 mg/kg/injection, schedule: Q01DX001 (ip), vehicle: saline
  T/C: 100 % of control

## CCOS(C)(=O)=O
dose: 50.0 mg/kg/injection, schedule: Q01DX009 (ip), vehicle: saline
  T/C: 90 % of control
dose: 100.0 mg/kg/injection, schedule: Q01DX009 (ip), vehicle: saline
  T/C: 100 % of control
dose: 100.0 mg/kg/injection, schedule: Q04DX003 (ip), vehicle: saline
  T/C: 100 % of control
dose: 200.0 mg/kg/injection, schedule: Q04DX003 (ip), vehicle: saline
  T/C: 105 % of control

## CCCNC(=O)Nc1ccc(C)cc1C
dose: 100.0 mg/kg/injection, schedule: Q04DX003 (ip), vehicle: saline with Tween-80
  T/C: 100 % of control
dose: 200.0 mg/kg/injection, schedule: Q04DX003 (ip), vehicle: saline with Tween-80
  T/C: 95 % of control
dose: 400.0 mg/kg/injection, schedule: Q04DX003 (ip), vehicle: saline with Tween-80
  T/C: 100 % of control

## CCOC(=O)Cn1c(=S)sc2ccccc21
[10]
  T/C: 114 % of control
[4]
  T/C: 98 % of control and 114 % of control
[5]
  T/C: 95 % of control and 120 % of control
[11]
  T/C: 93 % of control and 100 % of control
